Source: US9975902B2, “Compounds for the inhibition of cyclophilins and uses thereof” (Merck Patent GmbH, priority 2016, dated 2018)
pIC50, pKd: −log10 of the molar value.

Columns and labels:
CypD [1] = target: T1, CypD (Homo sapiens (Human), UniProt P30405); assay: CypD binding assay (competition fluorescence polarisation with fluorescine labelled cyclosporin)
Description: The binding capacity of the compounds was measured using a competition Fluorescence-Polarisation based assay with fluorescine labelled cyclosporin. The protocol used was adapted from Hausch et al, Med Chem lett 2010, p 536.

CypD [2] = target: T1, CypD; assay: SPR binding; conditions: steady state KD, read-out: SPR CypD (KDss)
Description: Binding was confirmed on an SPR surface using a protocol adapted from Mori et al., J. Biomolecular Screening, 2009, p.

T1 sequence (P30405 30-207): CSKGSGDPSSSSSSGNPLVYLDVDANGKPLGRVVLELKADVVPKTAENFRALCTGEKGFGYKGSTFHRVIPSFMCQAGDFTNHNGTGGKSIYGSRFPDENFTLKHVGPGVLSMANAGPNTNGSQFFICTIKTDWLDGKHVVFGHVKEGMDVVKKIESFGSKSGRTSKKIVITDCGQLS

| SMILES | pIC50 (CypD [1]) | pKd (CypD [2]) |
| --- | --- | --- |
| O=C(CN1C(=O)[C@@H]2[C@H]3CC[C@H](C3)[C@@H]2C1=O)NCc1ccc2c(c1)[C@H]1C[C@@H](N2)[C@H](O)CO1 [Compound 1, 2-exo-(3,5-Dioxo-4-aza-tricyclo[5.2.1.02,6]dec-4-yl)-N-((1R,9R,10S)-10-hydroxy-12-oxa-8-aza-tricyclo[7.3.1.02,7]trideca-2(7),3,5-trien-4-ylmethyl)-acetamide] | > 5.00 | > 5.00 |
| Nc1ccc(C2(NC(=O)CN3C(=O)[C@@H]4[C@@H]5CC[C@@H](C5)[C@@H]4C3=O)CC2)cc1 [Compound 5, 2-endo-(3,5-Dioxo-4-aza-tricyclo[5.2.1.02,6]dec-4-yl)-N-[1-(4-amino-phenyl)-cyclopropyl]-acetamide] | 3.70 to 5.00 | 3.70 to 5.00 |
| Nc1ccc(CCNC(=O)CN2C(=O)C3CCCCC3C2=O)cc1 (stereo not drawn) [Compound 7, N-[2-(4-Amino-phenyl)-ethyl]-2-(1,3-dioxo-octahydro-isoindol-2-yl)-acetamide] | 3.70 to 5.00 | 3.70 to 5.00 |
| Nc1ccc(CNC(=O)CN2C(=O)C3C4CCC(O4)C3C2=O)cc1 (stereo not drawn) [Compound 8, N-(4-Amino-benzyl)-2-(3,5-dioxo-10-oxa-4-aza-tricyclo[5.2.1.02,6]dec-4-yl)-acetamide] | 3.70 to 5.00 | 3.70 to 5.00 |
| Nc1ccc(CCNC(=O)CN2C(=O)[C@@H]3[C@@H]4CC[C@@H](C4)[C@@H]3C2=O)cc1 [Compound 10, N-endo-[2-(4-Amino-phenyl)-ethyl]-2-(3,5-dioxo-4-aza-tricyclo[5.2.1.02,6]dec-4-yl)-acetamide] | 3.70 to 5.00 | 3.70 to 5.00 |

Second part, the molecule after the results:

| pIC50 (CypD [1]) | pKd (CypD [2]) | SMILES |
| --- | --- | --- |
| > 5.00 | > 5.00 | O=C(CN1C(=O)[C@@H]2[C@@H]3CC[C@@H](C3)[C@@H]2C1=O)NCc1ccc2c(c1)[C@H]1C[C@@H](N2)[C@H](O)CO1 [Compound 3] |
| 3.70 to 5.00 | 3.70 to 5.00 | CCN1Cc2cc(CNC(=O)CN3C(=O)[C@@H]4[C@H]5CC[C@H](C5)[C@@H]4C3=O)ccc2NCCC1=O [Compound 6] |
| 3.70 to 5.00 | 3.70 to 5.00 | O=C(CN1C(=O)[C@@H]2[C@@H]3CC[C@@H](C3)[C@@H]2C1=O)NCCc1ccc2c(c1)CCCN2 [Compound 9, 2-endo-(3,5-Dioxo-4-aza-tricyclo[5.2.1.02,6]dec-4-yl)-N-[2-(1,2,3,4-tetrahydro-quinolin-6-yl)-ethyl]-acetamide] |
| 3.70 to 5.00 | 3.70 to 5.00 | CCC1Oc2cc(C(C)NC(=O)CN3C(=O)[C@@H]4[C@@H]5CC[C@@H](C5)[C@@H]4C3=O)ccc2NC1=O (stereo partly drawn) [Compound 11, 2-endo-(3,5-Dioxo-4-aza-tricyclo[5.2.1.02,6]dec-4-yl)-N-[1-(2-ethyl-3-oxo-3,4-dihydro-2H-benzo[1,4]oxazin-7-yl)-ethyl]-acetamide] |
